Source: ChEMBL document CHEMBL1201862, “PubChem BioAssay data set” (2004)
Active and inactive are the calls of the source. For most assays here, no stated cut-off is given here; in the data, actives have a measured EC50 and inactives only a lower limit.

What was measured:
[1] = HepG2 cell cytotoxicity, dose response, cytotoxicity control for Shn3 inhibitor project, CellTiter-Glo, cherry-picked (AID 624134); format: functional, cell-based
[2] = control 3'UTR Renilla luciferase suppression, dose response, counter-screen for Shn3 inhibitor project, cell-based, Clone20-Shn3RL, cherry-picked (AID 624133); format: functional
[3] = target: T1, Heat shock factor protein 1 (Mus musculus, UniProt P38532); assay: HSF1 potentiators in luciferase reporter cells, confirmation, cell-based, NIH3T3, luminescence, dose retest (AID 435004); format: functional;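 further: stress induced by proteasome inhibitor MG132 added 30 min after compound; luciferase reporter driven by HSF1 response element in NIH3T3 cells; actives raise luminescence as potentiators of the MG132 stress response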
T1 sequence (P38532 whole entry): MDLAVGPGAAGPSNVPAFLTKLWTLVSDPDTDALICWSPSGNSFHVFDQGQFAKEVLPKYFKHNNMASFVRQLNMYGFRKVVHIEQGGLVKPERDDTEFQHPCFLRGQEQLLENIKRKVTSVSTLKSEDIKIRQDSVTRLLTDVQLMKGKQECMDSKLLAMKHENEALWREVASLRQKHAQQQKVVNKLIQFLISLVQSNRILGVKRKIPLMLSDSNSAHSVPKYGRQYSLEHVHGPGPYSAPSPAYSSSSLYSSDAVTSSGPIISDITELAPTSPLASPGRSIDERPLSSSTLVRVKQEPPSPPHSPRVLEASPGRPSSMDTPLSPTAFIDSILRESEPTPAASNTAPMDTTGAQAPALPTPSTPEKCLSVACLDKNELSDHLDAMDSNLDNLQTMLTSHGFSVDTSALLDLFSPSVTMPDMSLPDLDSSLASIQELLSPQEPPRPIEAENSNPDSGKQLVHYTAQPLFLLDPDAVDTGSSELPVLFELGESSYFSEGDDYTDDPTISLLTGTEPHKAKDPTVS

[4] = target: Cytochrome P450 2D6 (Homo sapiens, UniProt P10635);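 further: CYP2D6 member of a cytochrome P450 panel assay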
[5] = target: T2, Carboxy-terminal domain RNA polymerase II polypeptide A small phosphatase 1 (Homo sapiens, UniProt Q9GZU7); assay: inhibitors of CTDSP1, concentration-response testing, biochemical assay, absorbance-based, actives from ultra-high-throughput screening (AID 540297); format: functional
T2 sequence (Q9GZU7 whole entry): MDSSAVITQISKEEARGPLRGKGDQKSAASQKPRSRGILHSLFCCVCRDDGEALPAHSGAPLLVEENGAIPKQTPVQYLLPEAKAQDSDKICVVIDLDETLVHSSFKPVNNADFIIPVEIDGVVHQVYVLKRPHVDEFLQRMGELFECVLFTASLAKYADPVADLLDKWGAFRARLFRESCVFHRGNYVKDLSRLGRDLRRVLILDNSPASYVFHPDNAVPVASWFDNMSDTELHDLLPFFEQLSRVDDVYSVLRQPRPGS

[6] = target: T3, Replicative DNA helicase DnaB (Mycobacterium tuberculosis, UniProt P9WMR3); assay: DnaB intein splicing inhibitors, dose response, biochemical, cell-free fluorescence (AID 449749); format: functional
T3 sequence (P9WMR3 whole entry): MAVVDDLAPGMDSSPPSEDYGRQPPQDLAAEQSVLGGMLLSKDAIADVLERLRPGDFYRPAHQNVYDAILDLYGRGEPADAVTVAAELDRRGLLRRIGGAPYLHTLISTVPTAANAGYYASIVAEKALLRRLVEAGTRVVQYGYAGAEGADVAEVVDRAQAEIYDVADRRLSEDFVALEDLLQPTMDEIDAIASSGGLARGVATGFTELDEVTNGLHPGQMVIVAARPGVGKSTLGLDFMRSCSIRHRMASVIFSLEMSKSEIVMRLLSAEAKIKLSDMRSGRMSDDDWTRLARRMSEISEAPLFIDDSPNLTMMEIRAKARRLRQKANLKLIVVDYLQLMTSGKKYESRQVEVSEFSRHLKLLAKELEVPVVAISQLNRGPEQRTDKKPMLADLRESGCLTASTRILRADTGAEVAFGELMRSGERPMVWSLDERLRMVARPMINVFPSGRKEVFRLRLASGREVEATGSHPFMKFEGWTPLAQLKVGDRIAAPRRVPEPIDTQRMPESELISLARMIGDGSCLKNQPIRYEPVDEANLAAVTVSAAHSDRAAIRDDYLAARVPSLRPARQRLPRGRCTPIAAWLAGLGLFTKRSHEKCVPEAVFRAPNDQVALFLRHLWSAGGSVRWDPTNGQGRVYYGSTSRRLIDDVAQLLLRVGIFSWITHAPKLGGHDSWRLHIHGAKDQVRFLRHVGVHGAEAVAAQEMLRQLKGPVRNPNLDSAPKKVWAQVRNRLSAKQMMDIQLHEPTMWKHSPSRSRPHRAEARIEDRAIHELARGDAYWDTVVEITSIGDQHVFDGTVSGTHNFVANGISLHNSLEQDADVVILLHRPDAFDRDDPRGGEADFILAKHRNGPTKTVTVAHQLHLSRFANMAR

[7] = target: T4, Protein RecA (Mycobacterium tuberculosis, UniProt P9WHJ3); assay: Fluorescence Cell-Free Homogeneous Dose Retest to Identify Inhibitors of RecA-Intein Splicing Activity. [Related pubchem assays (depositor defined):AID2097, AID2223, AID489010, AID492950]; format: functional
T4 sequence (P9WHJ3 whole entry): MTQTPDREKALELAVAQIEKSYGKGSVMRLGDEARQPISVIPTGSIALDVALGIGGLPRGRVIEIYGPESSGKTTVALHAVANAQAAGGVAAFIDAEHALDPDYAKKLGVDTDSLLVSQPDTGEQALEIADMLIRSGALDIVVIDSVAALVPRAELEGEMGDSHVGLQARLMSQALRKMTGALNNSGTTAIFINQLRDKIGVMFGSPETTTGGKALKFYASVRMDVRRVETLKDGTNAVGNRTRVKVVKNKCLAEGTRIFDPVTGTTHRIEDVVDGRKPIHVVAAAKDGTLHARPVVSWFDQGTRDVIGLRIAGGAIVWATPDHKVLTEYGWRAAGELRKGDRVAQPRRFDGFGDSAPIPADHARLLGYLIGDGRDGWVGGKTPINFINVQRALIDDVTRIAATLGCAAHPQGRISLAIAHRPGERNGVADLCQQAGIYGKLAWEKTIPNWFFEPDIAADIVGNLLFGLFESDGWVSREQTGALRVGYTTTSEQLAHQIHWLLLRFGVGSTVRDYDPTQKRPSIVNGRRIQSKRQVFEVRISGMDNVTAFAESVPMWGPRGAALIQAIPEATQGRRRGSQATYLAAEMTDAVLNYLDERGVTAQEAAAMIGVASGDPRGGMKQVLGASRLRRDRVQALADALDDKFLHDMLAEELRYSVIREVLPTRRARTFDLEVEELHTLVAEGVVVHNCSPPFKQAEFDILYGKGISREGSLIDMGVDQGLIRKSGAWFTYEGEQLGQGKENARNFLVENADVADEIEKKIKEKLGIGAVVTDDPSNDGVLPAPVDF

[8] = test system: BJ; assay: cytotoxicity toward BJ-TERT-LT-ST fibroblasts, dose response, cell-based, RAS-independent, luminescence (AID 1935); format: functional; settings: Homo sapiens;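 further: BJ fibroblasts immortalized with TERT plus LT and ST oncogenes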
[9] = cytotoxicity toward DRD oncogenic fibroblasts, dose response, cell-based, non-viral oncogenic, luminescence (AID 1934); format: functional; settings: Homo sapiens
[10] = test system: BJ; assay: cytotoxicity toward BJ-TERT fibroblasts, dose response, cell-based, RAS-independent, luminescence (AID 1933); format: functional; settings: Homo sapiens
[11] = test system: BJ; assay: cells; format: functional, cell-based; settings: Homo sapiens
[12] = C. albicans growth with fluconazole, confirmation, fluorescence, retest (AID 2467); format: functional, cell-based
[13] = NIH-3T3 fibroblast cytotoxicity, dose response, cytotoxicity control, cell-based, fluorescence, Alamar Blue, secondary assay (AID 2327); format: functional;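 further: NIH-3T3 mouse fibroblasts cultured with fluconazole at 8 µg/mL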
[14] = cytotoxicity toward NIH3T3 fibroblasts, dose response, counter-screen, cell-based, ATP luminescence, mouse fibroblasts (AID 2010); format: functional;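 further: cells exposed to compound for about 90 hours before reading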
[15] = inhibitors of intracellular T. cruzi replication, confirmation, NIH3T3 host cells, beta-gal luminescence (AID 2044); format: functional, cell-based;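 further: intracellular parasites grown in NIH/3T3 mouse fibroblasts as host cells; luminescent beta-galactosidase reporter signal from transgenic T. cruzi replicating inside host cells; inhibitors lower the luminescence signal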
[16] = P. falciparum Dd2 growth inhibitors, dose response, SYBR Green, cherry-picked samples (AID 1159567); format: functional, cell-based
[17] = test system: H4; assay: Luminescence Cell-Based Dose Response HTS to Identify Activators of 5'UTR Stem-Loop Driven Prion Protein mRNA Translation in H4 Neuroglioblastoma Cells. [Related pubchem assays: 1829 (Project Summary), 1814 (Primary HTS)]; format: functional; settings: Homo sapiens
[18] = Luminescence Cell-Based Dose Confirmation HTS to Identify Activators of 5'UTR Stem-Loop Driven Alpha-Synuclein mRNA Translation in H4 Neuroglioblastoma Cells. [Related pubchem assays: 1829 (Project Summary), 1814 (Primary HTS)]; format: functional
[19] = Luminescence Cell-Based Dose Response HTS to Identify Activators of Luciferase Translation or Activity in H4 […] Cells. [Related pubchem assays: 1829 (Project Summary), 1814 (Primary HTS)]; format: functional

Chain of Cytochrome P450 2D6 (P10635 whole entry, the tested form may be a part): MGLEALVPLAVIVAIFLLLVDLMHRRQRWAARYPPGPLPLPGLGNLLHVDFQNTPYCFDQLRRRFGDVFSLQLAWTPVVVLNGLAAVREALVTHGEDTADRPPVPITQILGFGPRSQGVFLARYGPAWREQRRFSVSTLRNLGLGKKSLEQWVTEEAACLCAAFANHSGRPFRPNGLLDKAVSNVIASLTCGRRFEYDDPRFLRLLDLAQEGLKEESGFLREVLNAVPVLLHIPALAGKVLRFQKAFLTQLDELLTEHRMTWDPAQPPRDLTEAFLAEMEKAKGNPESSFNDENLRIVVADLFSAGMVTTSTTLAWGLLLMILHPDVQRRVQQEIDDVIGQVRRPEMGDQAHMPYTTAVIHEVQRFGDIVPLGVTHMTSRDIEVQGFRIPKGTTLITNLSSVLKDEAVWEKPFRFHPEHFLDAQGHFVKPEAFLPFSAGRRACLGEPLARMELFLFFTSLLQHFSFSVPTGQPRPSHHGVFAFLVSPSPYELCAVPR

## Cc1ccc(NC(=O)CN(C)C(=O)COc2cc(F)ccc2[N+](=O)[O-])cc1
[1]
  AC50: > 70 µM (inactive)
[2]
  AC50: 16.2 µM (active)

## Nc1nc(Br)c2c(F)cccc2c1-c1ccc(Cl)cc1
[3]
  EC50: > 260 µM (inactive)
[4]
  AC50: 3.16 µM (inconclusive)

## CCCn1c(SCC(=O)c2cc(OC)ccc2OC)nnc1C(C)C
[3]
  EC50: 62.4 µM (active)

## O=C(N/N=C/c1ccc(OC(=O)c2cccs2)cc1)c1ccc(F)cc1
[5]
  IC50: > 80 µM (inactive)

## COc1ccc(C(=O)C2C(c3ccc(-c4ccccc4[N+](=O)[O-])o3)NC(=O)NC2(O)C(F)(F)F)cc1 (configuration not stated)
[6]
  AC50: 14.6 µM (active)
[7]
  EC50: 21.5 µM (active)

## Clc1ccc(SCc2csc(N3CCOCC3)n2)cc1
[3]
  EC50: 51.8 µM (active)

## Cc1ccc(NC(=O)c2cnc(SCC(=O)NCC3CCCO3)n(C)c2=O)cc1 (configuration not stated)
[6]
  AC50: 10.1 µM (active)
[7]
  EC50: 30.9 µM (active)

## CC(O)/C=C/c1cccc[n+]1C (configuration not stated)
[5]
  IC50: 12.2 µM (active)

## CC1CCC(NC(=O)Cn2c(=O)oc3cc(S(=O)(=O)N4CCCC4)ccc32)CC1 (configuration not stated)
[5]
  IC50: 25.5 µM (active)

## Cc1cc(C)c2nc3sc(C(=O)N4CCOCC4)c(N)c3cc2c1
[8]
  EC50: 26 µM (active)
[9]
  EC50: 2.62 µM (active)
[10]
  EC50: 2.52 µM (active)
[11]
  EC50: 2.64 µM (active)

## O=C1CCCN1CCCNc1c([N+](=O)[O-])nn(-c2ccc(Cl)cc2)[n+]1[O-]
[12]
  EC50: > 38 µM (not active)
[13]
  EC50: 17 µM (active)
[3]
  EC50: 26.5 µM (active)
[14]
  EC50: > 60 µM (inconclusive)
[15]
  EC50: 0.562 µM (active)

## CCCN1C[C@@H](C)[C@H](OC)CN(C)C(=O)c2ccc(NC(=O)c3ccc4c(c3)OCO4)cc2OC[C@H]1C
[16]
  AC50: 3.45 µM (active)

## S=C(Nc1ccccc1)Nc1ccc(Cl)cn1
[3]
  EC50: > 260 µM (inactive)

## O=C(COc1ccc(-n2cnnn2)cc1)Nc1cccc(Cl)c1Cl
[5]
  IC50: 6.36 µM (active)

## CCCc1n(CC(O)COC2CCCCC2)c2ccccc2[n+]1C (configuration not stated)
[5]
  IC50: 14.3 µM (active)

## Cn1c(SCC(=O)NC(=O)NCc2ccco2)nnc1-c1ccccc1
[5]
  IC50: 6.39 µM (active)

## COc1ccc2c3c([nH]c2c1)[C@H](CO)N(C(=O)Nc1ccc(F)cc1)CC31CCN(C(=O)c2ccccn2)CC1
[16]
  AC50: 12.4 µM (active)

## O=C(c1ccc(F)cc1)N1CC(=O)N2[C@H](CO)[C@@H](c3ccc(C#Cc4ccc(F)cc4)cc3)[C@@H]2C1
[16]
  AC50: 5.03 µM (active)

## CC(C)Oc1cccc(C(=O)C2CCCN(C(=O)c3csnn3)C2)c1 (configuration not stated)
[6]
  AC50: > 380 µM (inactive)
[7]
  EC50: > 380 µM (inactive)

## C/C=C/c1ccc2c(c1)[C@@H]1[C@@H](CCN1C(=O)C1CCCC1)[C@H](CO)N2
[16]
  AC50: 12.7 µM (active)

## Cc1nn(-c2ccccc2)c2c1C(c1ccco1)C(C#N)=C(N)O2 (configuration not stated)
[6]
  AC50: 5.88 µM (active)
[7]
  EC50: 4.03 µM (active)

## CCOC(=O)CSCC(=O)N1N=C(c2cccs2)CC1c1ccc(F)cc1 (configuration not stated)
[6]
  AC50: 17.7 µM (active)
[7]
  EC50: 15.1 µM (active)

## COc1ccc(NC(=O)N(C)C[C@H]2Oc3ccc(NC(=O)Nc4ccc(C(F)(F)F)cc4)cc3CC(=O)N([C@H](C)CO)C[C@@H]2C)cc1
[16]
  AC50: 3.41 µM (active)

## CCOc1cc(/C=N/NC(=O)CSc2nnc(C)s2)ccc1OCc1ccccc1Cl
[5]
  IC50: 10.1 µM (active)

## Fc1ccc(NC(S)=Nc2cc(Cl)ccc2Cl)cc1
[3]
  EC50: > 260 µM (inactive)

## C/C(CC(=O)Nc1cccnc1)=N\NC(=O)c1ccc([N+](=O)[O-])c(Cl)c1
[6]
  AC50: 20.4 µM (active)
[7]
  EC50: 4.18 µM (active)

## COc1cc(NC(=O)Cc2cccs2)ccc1-n1cnnn1
[3]
  EC50: > 260 µM (inactive)

## Cc1ccc(-n2nc(C)c3c2OC(N)=C(C#N)C3c2ccc(F)cc2)cc1 (configuration not stated)
[17]
  EC50: > 120 µM (not active)
[18]
  EC50: > 120 µM (not active)
[6]
  AC50: 14.2 µM (active)
[19]
  EC50: > 120 µM (not active)
[7]
  EC50: 6.09 µM (active)

## c1ccc(CN2C[C@@H]3N[C@H](C2)[C@H]3c2ccc(-c3ccncc3)cc2)cc1
[16]
  AC50: 9.92 µM (active)

## CCC1=Nc2cc(C(=O)O)ccc2Sc2ccc(Cl)cc21
[8]
  EC50: > 150 µM (not active)
[9]
  EC50: > 150 µM (not active)
[10]
  EC50: > 150 µM (not active)
[11]
  EC50: > 150 µM (not active)
